Counter-ions that a name gives are not always drawn.

Holding throughout (type): biochemical
One assay addresses T1, AKT1 (Homo sapiens, UniProt P31749).
T1 construct: purchased SignalChem
As to the kind of experiment: AKT Kinase Assay (IMAP fluorescent polarisation) vs AKT1. The settings on record: activated AKT1, FAM Crosstide substrate. The gist of the method:
(§1)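 IC50 values came from non-linear regression of % inhibition relative to vehicle, measured by IMAP fluorescence polarisation (485/528 nm) after a 1 h room-temperature reaction of FAM-Crosstide and ATP. Each activated isoform was first exposed to compound for 45 min across fourteen half-log doses.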

The next assay addresses T2, AKT2 (Homo sapiens, UniProt P31751).
T2 construct: purchased SignalChem
Description: AKT Kinase Assay (IMAP fluorescent polarisation) vs AKT2. Conditions: activated AKT2, FAM Crosstide substrate. A digest of the protocol:
as §1

A further assay deals with T3, AKT3 (Homo sapiens, UniProt Q9Y243).
T3 construct: purchased SignalChem
T3 sequence (Q9Y243 whole entry): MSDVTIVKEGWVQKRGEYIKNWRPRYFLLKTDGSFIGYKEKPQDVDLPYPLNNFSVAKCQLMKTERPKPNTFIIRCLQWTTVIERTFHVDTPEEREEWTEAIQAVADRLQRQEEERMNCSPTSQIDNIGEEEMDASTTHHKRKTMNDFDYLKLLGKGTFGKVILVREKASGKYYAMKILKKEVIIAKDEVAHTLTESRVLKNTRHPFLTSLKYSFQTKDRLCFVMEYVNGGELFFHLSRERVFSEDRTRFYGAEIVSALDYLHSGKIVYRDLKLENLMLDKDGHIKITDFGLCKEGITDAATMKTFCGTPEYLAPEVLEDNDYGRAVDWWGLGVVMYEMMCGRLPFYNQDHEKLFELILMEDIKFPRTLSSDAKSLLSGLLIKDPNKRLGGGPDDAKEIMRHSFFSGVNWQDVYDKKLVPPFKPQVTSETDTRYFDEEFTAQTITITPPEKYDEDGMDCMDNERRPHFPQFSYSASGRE
As to the kind of experiment: AKT Kinase Assay (IMAP fluorescent polarisation) vs AKT3. Conditions: activated AKT3, FAM Crosstide substrate. A digest of the protocol: as §1

T2 sequence (P31751 whole entry): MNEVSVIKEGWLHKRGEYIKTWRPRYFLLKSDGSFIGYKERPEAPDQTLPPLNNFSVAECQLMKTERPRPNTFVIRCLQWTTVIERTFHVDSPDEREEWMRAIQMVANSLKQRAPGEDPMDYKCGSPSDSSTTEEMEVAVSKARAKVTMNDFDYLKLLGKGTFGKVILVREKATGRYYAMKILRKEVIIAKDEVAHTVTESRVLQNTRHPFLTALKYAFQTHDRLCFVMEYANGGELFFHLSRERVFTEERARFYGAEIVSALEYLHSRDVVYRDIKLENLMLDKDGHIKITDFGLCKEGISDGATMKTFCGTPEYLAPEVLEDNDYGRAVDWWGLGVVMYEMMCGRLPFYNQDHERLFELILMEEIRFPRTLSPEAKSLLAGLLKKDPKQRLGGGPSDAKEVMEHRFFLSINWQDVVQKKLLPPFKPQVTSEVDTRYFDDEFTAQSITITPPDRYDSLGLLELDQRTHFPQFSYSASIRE
T1 sequence (P31749 whole entry): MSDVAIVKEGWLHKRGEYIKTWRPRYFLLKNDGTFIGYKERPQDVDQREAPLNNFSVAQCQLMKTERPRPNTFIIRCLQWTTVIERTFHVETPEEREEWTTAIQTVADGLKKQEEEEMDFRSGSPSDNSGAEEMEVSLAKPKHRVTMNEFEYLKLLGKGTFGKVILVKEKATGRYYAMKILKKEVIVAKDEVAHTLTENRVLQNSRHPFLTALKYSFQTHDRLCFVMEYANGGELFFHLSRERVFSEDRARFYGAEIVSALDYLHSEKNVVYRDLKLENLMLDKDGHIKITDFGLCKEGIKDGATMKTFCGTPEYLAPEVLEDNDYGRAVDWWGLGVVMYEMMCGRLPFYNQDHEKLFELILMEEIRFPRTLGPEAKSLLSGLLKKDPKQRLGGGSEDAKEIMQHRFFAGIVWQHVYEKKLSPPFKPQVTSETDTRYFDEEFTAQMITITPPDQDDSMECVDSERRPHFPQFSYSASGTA

One may read the IC50 as the concentration that gives 50% inhibition. As to `NC1(c2ccc(-c3c(-c4ccccc4)oc4c(ccc5cn(CCO)nc54)c3=O)cc2)CCC1` [Example 86, 7-[4-(1-Amino-cyclobutyl)-phenyl]-2-(2-hydroxy-ethyl)-8-phenyl-2H-9-oxa-1,2-diaza-cyclopenta[a]naphthalen-6-one hydrochloride], the IC50 is no more than 1000 nM at AKT1, no more than 1000 nM at AKT2 and 1000 to 10000 nM at AKT3.
For `Nc1cc2oc(-c3ccccc3)c(-c3ccc(C4(N)CCC4)cc3)c(=O)c2cc1Br` [Example 49, 7-Amino-3-[4-(1-amino-cyclobutyl)-phenyl]-6-bromo-2-phenyl-chromen-4-one. TFA], the IC50 is no more than 1000 nM on AKT1, greater than 10000 nM on AKT2 and greater than 10000 nM on AKT3.
On to `NC1(c2ccc(-c3c(-c4ccccc4)oc4cccc(F)c4c3=O)cc2)CCC1` [Example 3, 3-[4-(1-Amino-cyclobutyl)-phenyl]-5-fluoro-2-phenyl-chromen-4-one], for which the IC50 is 1000 to 10000 nM on AKT1, 1000 to 10000 nM at AKT2 and greater than 10000 nM at AKT3.
Regarding `NC1(c2ccc(-c3c(-c4ccccc4)oc4cc(F)c(F)cc4c3=O)cc2)CCC1` [Example 23, 3-[4-(1-Amino-cyclobutyl)-phenyl]-6,7-difluoro-2-phenyl-chromen-4-one], the IC50 at AKT1 was 1000 to 10000 nM; at AKT2 it was 1000 to 10000 nM; on AKT3, greater than 10000 nM.
Turning to `CC(C)(C#N)c1ccc(-c2c(-c3ccccc3)oc3c(ccn4c(=O)[nH]nc34)c2=O)cc1` [Example 70, 2-[4-(3,6-Dioxo-8-phenyl-2,6-dihydro-3H-9-oxa-1,2,3a-triaza-cyclopenta[a]naphthalen-7-yl)-phenyl]-2-methyl-propionitrile], the half-inhibitory concentration (IC50) at AKT1 is no more than 1000 nM; at AKT2, greater than 10000 nM; on AKT3 it was greater than 10000 nM.
`Cc1nc2ccc3c(=O)c(-c4ccc(C5(N)CCC5)cc4)c(-c4ccccc4)oc3c2n1C` [Example 90, 7-[4-(1-Amino-cyclobutyl)-phenyl]-1,2-dimethyl-8-phenyl-1H-chromeno[7,8-d]imidazol-6-one]: the IC50 at AKT1, at AKT2 and on AKT3 was no more than 1000 nM in each case.
`Nc1ccc2c(=O)c(-c3ccc(C4(N)CCC4)cc3)c(-c3ccccc3)oc2c1O` [Example 93, 7-Amino-3-[4-(1-amino-cyclobutyl)-phenyl]-8-hydroxy-2-phenyl-chromen-4-one]: the IC50 is no more than 1000 nM at AKT1, 1000 to 10000 nM at AKT2 and greater than 10000 nM at AKT3.
The corresponding values for `NC1(c2ccc(-c3c(-c4ccccc4)oc4c(-c5ccc(C6(N)CCC6)cc5)nccc4c3=O)cc2)CCC1` [Example 113, 3,8-bis(4-(1-aminocyclobutyl)phenyl)-2-phenyl-4H-pyrano[2,3-c]pyridin-4-one] are no more than 1000 nM, greater than 10000 nM and greater than 10000 nM.
For the compound `NC1(c2ccc(-c3c(-c4ccccc4)oc4c(ccc5[nH]ncc54)c3=O)cc2)CCC1` [Example 33, 3-[4-(1-Amino-cyclobutyl)-phenyl]-2-phenyl-7H-pyrano[2,3-c]indazol-4-one], the IC50 at AKT1, on AKT2 and at AKT3 was no more than 1000 nM in each case.
As to `N#CCn1ncc2ccc3c(=O)c(-c4ccc(C5(N)CCC5)cc4)c(-c4ccccc4)oc3c21` [Example 111, 2-(7-(4-(1-aminocyclobutyl)phenyl)-6-oxo-8-phenylpyrano[3,2-g]indazol-1(6H)-v1)acetonitrile], the IC50 at AKT1 is no more than 1000 nM; at AKT2 it was 1000 to 10000 nM; at AKT3, 1000 to 10000 nM.
Turning to `NC1(c2ccc(-c3c(-c4ccccc4)oc4ccc(OC(F)(F)F)cc4c3=O)cc2)CCC1` [Example 25, 3-[4-(1-Amino-cyclobutyl)-phenyl]-2-phenyl-6-trifluoromethoxy-chromen-4-one], the figures for the IC50 at AKT1, on AKT2 and at AKT3 were greater than 10000 nM, 1000 to 10000 nM and greater than 10000 nM, respectively.
In the case of `Cn1nc2c3oc(-c4ccccc4)c(-c4ccc(C5(N)CCC5)cc4)c(=O)c3ccn2c1=O` [Example 64, 7-[4-(1-Amino-cyclobutyl)-phenyl]-2-methyl-8-phenyl-2H-9-oxa-1,2,3a-triaza-cyclopenta[a]naphthalene-3,6-dione hydrochloride], the IC50 at AKT1, at AKT2 and on AKT3 was no more than 1000 nM each time.
For the compound `Cn1cc(-c2cccc3c(=O)c(-c4ccc(C5(N)CCC5)cc4)c(-c4ccccc4)oc23)cn1` [Example 55, 3-[4-(1-Amino-cyclobutyl)-phenyl]-8-(1-methyl-1H-pyrazol-4-yl)-2-phenyl-chromen-4-one hydrochloride], the results for the IC50 at AKT1, at AKT2 and at AKT3 were no more than 1000 nM, no more than 1000 nM and 1000 to 10000 nM, respectively.
As for `N#CCOc1ccc2c(=O)c(-c3ccc(C4(N)CCC4)cc3)c(-c3ccccc3)oc2c1Br` [Example 110, 2-(3-(4-(1-aminocyclobutyl)phenyl)-8-bromo-4-oxo-2-phenyl-4H-chromen-7-yloxy)acetonitrile], the IC50 is no more than 1000 nM on AKT1, 1000 to 10000 nM at AKT2 and 1000 to 10000 nM on AKT3.
Take `COc1ccc2oc(-c3ccccc3)c(-c3ccc(C4(N)CCC4)cc3)c(=O)c2c1` [Example 5, 3-[4-(1-Amino-cyclobutyl)-phenyl]-6-methoxy-2-phenyl-chromen-4-one]: the IC50 at AKT1 is 1000 to 10000 nM; on AKT2 it was 1000 to 10000 nM; on AKT3, greater than 10000 nM.
For `NC1(c2ccc(-c3c(-c4ccccc4)oc4c(-c5cn[nH]c5)cccc4c3=O)cc2)CCC1` [Example 52, 3-[4-(1-Amino-cyclobutyl)-phenyl]-2-phenyl-8-(1H-pyrazol-4-yl)-chromen-4-one hydrochloride], the IC50 on AKT1, at AKT2 and at AKT3 was no more than 1000 nM throughout.
For the compound `NC1(c2ccc(-c3c(-c4ccccc4)oc4c(N5CCOCC5)cccc4c3=O)cc2)CCC1` [Example 72, 3-[4-(1-Amino-cyclobutyl)-phenyl]-8-morpholin-4-yl-2-phenyl-chromen-4-one hydrochloride], the half-inhibitory concentration (IC50) is no more than 1000 nM on AKT1, 1000 to 10000 nM on AKT2 and greater than 10000 nM on AKT3.
For `COc1cc2oc(-c3ccccc3)c(-c3ccc(C4(N)CCC4)cc3)c(=O)c2cc1C(N)=O` [Example 10, 3-[4-(1-Amino-cyclobutyl)-phenyl]-7-methoxy-4-oxo-2-phenyl-4H-chromene-6-carboxylic acid amide], in that order: 1000 to 10000 nM, no more than 1000 nM and 1000 to 10000 nM.
For `Cc1nccc2c(=O)c(-c3ccc(C4(N)CCC4)cc3)c(-c3ccccc3)oc12` [Example 120, 3-(4-(1-aminocyclobutyl)phenyl)-8-methyl-2-phenyl-4H-pyrano[2,3c]pyridin-4-one], the results for the IC50 at AKT1, at AKT2 and on AKT3 were 1000 to 10000 nM, 1000 to 10000 nM and greater than 10000 nM, respectively.
For `COc1cc2oc(-c3ccccc3)c(-c3ccc(C4(N)CCC4)cc3)c(=O)c2cc1OC` [Example 15, 3-[4-(1-Amino-cyclobutyl)-phenyl]-6,7-dimethoxy-2-phenyl-chromen-4-one], the IC50 is 1000 to 10000 nM on AKT1, no more than 1000 nM on AKT2 and 1000 to 10000 nM at AKT3.
As to `NC1(c2ccc(-c3c(-c4ccccc4)oc4c(ccn5c(=O)[nH]nc45)c3=O)cc2)COC1` [Example 68, 7-[4-(3-Amino-oxetan-3-yl)-phenyl]-8-phenyl-2H-9-oxa-1,2,3a-triaza-cyclopenta[a]naphthalene-3,6-dione], the IC50 at AKT1 was no more than 1000 nM; on AKT2, 1000 to 10000 nM; at AKT3 it was greater than 10000 nM.
The corresponding values for `CCn1ncc2ccc3c(=O)c(-c4ccc(C5(N)CCC5)cc4)c(-c4ccccc4)oc3c21` [Example 81, 7-[4-(1-Amino-cyclobutyl)-phenyl]-1-ethyl-8-phenyl-1H-9-oxa-1,2-diaza-cyclopenta[a]naphthalen-6-one hydrochloride] are no more than 1000 nM, no more than 1000 nM and 1000 to 10000 nM.
As to `Cn1cnc2ccc3c(=O)c(-c4ccc(C5(N)CCC5)cc4)c(-c4ccccc4)oc3c21` [Example 96, 7-[4-(1-Amino-cyclobutyl)-phenyl]-1-methyl-8-phenyl-1H-chromeno[7,8-d]imidazol-6-one], the IC50 at AKT1, on AKT2 and at AKT3 was no more than 1000 nM in each case.
Regarding `Cn1cc2c(ccc3c(=O)c(-c4ccc(C5(N)CCC5)cc4)c(-c4ccccc4)oc32)n1` [Example 61, 3-[4-(1-Amino-cyclobutyl)-phenyl]-8-methyl-2-phenyl-8H-pyrano[2,3-e]indazol-4-one], the IC50 on AKT1 was no more than 1000 nM; at AKT2 it was no more than 1000 nM; at AKT3, 1000 to 10000 nM.
Consider `NC1(c2ccc(-c3c(-c4ccccc4)oc4c(Br)cccc4c3=O)cc2)COC1` [Example 67, 3-[4-(3-Amino-oxetan-3-yl)-phenyl]-8-bromo-2-phenyl-chromen-4-one], for which the results for the IC50 at AKT1, at AKT2 and at AKT3 were no more than 1000 nM, greater than 10000 nM and greater than 10000 nM, respectively.
Turning to `NC1(c2ccc(-c3c(-c4ccccc4)oc4c(OC(F)F)nccc4c3=O)cc2)CCC1` [Example 32, 3-[4-(1-Amino-cyclobutyl)-phenyl]-8-difluoromethoxy-2-phenyl-pyrano[2,3-c]pyridin-4-one], the 50% inhibitory concentration (IC50) on AKT1 was 1000 to 10000 nM; on AKT2, no more than 1000 nM; on AKT3 it was 1000 to 10000 nM.
On to `NC1(c2ccc(-c3c(-c4ccccc4)oc4c(ccc5[nH]c(=O)oc54)c3=O)cc2)CCC1` [Example 91, 7-[4-(1-Amino-cyclobutyl)-phenyl]-8-phenyl-3H-chromeno[7,8-d]oxazole-2,6-dione], for which the IC50 on AKT1 is no more than 1000 nM; on AKT2, no more than 1000 nM; at AKT3, greater than 10000 nM.

Source of the values: patent US8546376B2, “Pharmaceutical compounds” (Almac Discovery Limited, priority 2009, dated 2013).
